Reference: patent US9351960B2 (priority 2012, dated 2016)

Test system: cytopathogenic HCV variant C-13
Assay: Antiviral activity in pig embryonic kidney cell (SPEV) cultures infected with HCV
Method: Infectious HCV doses used were equal to 10.0 tissue cytopathogenic doses (TCID50)/20 μL.
The used primary fibroblasts highly sensitive to cytopathogenic action of HCV were obtained after trypsinization of 9-day-old chick embryos (FEC), and the used pig embryonic kidney cell (SPEV) cultures were obtained from the Collection of Cell Cultures of the Institute of Virology RAMS. They were used in the form of a one-day cell monolayer grown in 24-well plastic plates. The SPEV and FEC cell cultures were cultured in medium 199 with 10% fetal calf serum, supplemented with glutamine and antibiotics (100 U/ml).
To study the antiviral activity of the drug, a 50 μL of a solution thereof taken in various dilutions were added to the FEC cultures at the time of infection, 24 hours before and 24 hours after infection of the cells.
The infectious activity of HCV was assessed according to the results of titration of fluid samples in the SPEV cell cultures, wherein the culture fluids were derived from the HCV-infected FEC or SPEV cultures on 2 and 5 days after infection. The results were usually registered 6 or 7 days after infection, when the viral cytopathic effect reached its maximum, using the Reed and Muench formula to determine HCV titers.
Samples of the culture medium were taken on Day 3, Day 4 and Day 5 after infection and titrated in fresh SPEV cell cultures.

O=C(O)CCCC(=O)NCCc1c[nH]cn1 [glutaryl histamine]
HCV titers (lg TCID50 for SPEV cell cultures) in medium samples (SPEV, Day 3, 0.005 μg/mL, treatment 24 hours after infection): 0 lg TCID50 | HCV titers (lg TCID50 for SPEV cell cultures) in medium samples (SPEV, Day 3, 0.005 μg/mL, treatment 24 hours before infection): 3.0 lg TCID50 | HCV titers (lg TCID50 for SPEV cell cultures) in medium samples (SPEV, Day 3, 0.005 μg/mL, treatment at the time of infection): 3.3 lg TCID50 | HCV titers (lg TCID50 for SPEV cell cultures) in medium samples (SPEV, Day 3, 0.05 μg/mL, treatment 24 hours after infection): <1.0 lg TCID50 | HCV titers (lg TCID50 for SPEV cell cultures) in medium samples (SPEV, Day 3, 0.05 μg/mL, treatment 24 hours before infection): 3.2 lg TCID50 | HCV titers (lg TCID50 for SPEV cell cultures) in medium samples (SPEV, Day 3, 0.05 μg/mL, treatment at the time of infection): 3.3 lg TCID50 | HCV titers (lg TCID50 for SPEV cell cultures) in medium samples (SPEV, Day 3, 0.5 μg/mL, treatment 24 hours after infection): 0 lg TCID50 | HCV titers (lg TCID50 for SPEV cell cultures) in medium samples (SPEV, Day 3, 0.5 μg/mL, treatment 24 hours before infection): 3.2 lg TCID50 | HCV titers (lg TCID50 for SPEV cell cultures) in medium samples (SPEV, Day 3, 0.5 μg/mL, treatment at the time of infection): 3.3 lg TCID50 | HCV titers (lg TCID50 for SPEV cell cultures) in medium samples (SPEV, Day 3, 5.0 μg/mL, treatment 24 hours after infection): 0 lg TCID50 | HCV titers (lg TCID50 for SPEV cell cultures) in medium samples (SPEV, Day 3, 5.0 μg/mL, treatment 24 hours before infection): 3.5 lg TCID50 | HCV titers (lg TCID50 for SPEV cell cultures) in medium samples (SPEV, Day 3, 5.0 μg/mL, treatment at the time of infection): 2.3 lg TCID50 | HCV titers (lg TCID50 for SPEV cell cultures) in medium samples (SPEV, Day 3, 50.0 μg/mL, treatment 24 hours after infection): 1.25 lg TCID50 | HCV titers (lg TCID50 for SPEV cell cultures) in medium samples (SPEV, Day 3, 50.0 μg/mL, treatment 24 hours before infection): 3.5 lg TCID50 | HCV titers (lg TCID50 for SPEV cell cultures) in medium samples (SPEV, Day 3, 50.0 μg/mL, treatment at the time of infection): 3.5 lg TCID50 | HCV titers (lg TCID50 for SPEV cell cultures) in medium samples (SPEV, Day 3, 500.0 μg/mL, treatment 24 hours after infection): 0 lg TCID50 | HCV titers (lg TCID50 for SPEV cell cultures) in medium samples (SPEV, Day 3, 500.0 μg/mL, treatment 24 hours before infection): 3.5 lg TCID50 | HCV titers (lg TCID50 for SPEV cell cultures) in medium samples (SPEV, Day 3, 500.0 μg/mL, treatment at the time of infection): 3.0 lg TCID50 | HCV titers (lg TCID50 for SPEV cell cultures) in medium samples (SPEV, Day 4, 0.005 μg/mL, treatment 24 hours after infection): 0 lg TCID50 | HCV titers (lg TCID50 for SPEV cell cultures) in medium samples (SPEV, Day 4, 0.005 μg/mL, treatment 24 hours before infection): 3.4 lg TCID50 | HCV titers (lg TCID50 for SPEV cell cultures) in medium samples (SPEV, Day 4, 0.005 μg/mL, treatment at the time of infection): 4.1 lg TCID50 | HCV titers (lg TCID50 for SPEV cell cultures) in medium samples (SPEV, Day 4, 0.05 μg/mL, treatment 24 hours after infection): 1.3 lg TCID50 | HCV titers (lg TCID50 for SPEV cell cultures) in medium samples (SPEV, Day 4, 0.05 μg/mL, treatment 24 hours before infection): 3.0 lg TCID50 | HCV titers (lg TCID50 for SPEV cell cultures) in medium samples (SPEV, Day 4, 0.05 μg/mL, treatment at the time of infection): 4.4 lg TCID50 | HCV titers (lg TCID50 for SPEV cell cultures) in medium samples (SPEV, Day 4, 0.5 μg/mL, treatment 24 hours after infection): 0 lg TCID50 | HCV titers (lg TCID50 for SPEV cell cultures) in medium samples (SPEV, Day 4, 0.5 μg/mL, treatment 24 hours before infection): 3.8 lg TCID50 | HCV titers (lg TCID50 for SPEV cell cultures) in medium samples (SPEV, Day 4, 0.5 μg/mL, treatment at the time of infection): 4.1 lg TCID50 | HCV titers (lg TCID50 for SPEV cell cultures) in medium samples (SPEV, Day 4, 5.0 μg/mL, treatment 24 hours after infection): 0 lg TCID50 | HCV titers (lg TCID50 for SPEV cell cultures) in medium samples (SPEV, Day 4, 5.0 μg/mL, treatment 24 hours before infection): 3.4 lg TCID50 | HCV titers (lg TCID50 for SPEV cell cultures) in medium samples (SPEV, Day 4, 5.0 μg/mL, treatment at the time of infection): 5.5 lg TCID50 | HCV titers (lg TCID50 for SPEV cell cultures) in medium samples (SPEV, Day 4, 50.0 μg/mL, treatment 24 hours after infection): 2.6 lg TCID50 | HCV titers (lg TCID50 for SPEV cell cultures) in medium samples (SPEV, Day 4, 50.0 μg/mL, treatment 24 hours before infection): 3.8 lg TCID50 | HCV titers (lg TCID50 for SPEV cell cultures) in medium samples (SPEV, Day 4, 50.0 μg/mL, treatment at the time of infection): 5.0 lg TCID50 | HCV titers (lg TCID50 for SPEV cell cultures) in medium samples (SPEV, Day 4, 500.0 μg/mL, treatment 24 hours after infection): 0 lg TCID50 | HCV titers (lg TCID50 for SPEV cell cultures) in medium samples (SPEV, Day 4, 500.0 μg/mL, treatment 24 hours before infection): 3.8 lg TCID50 | HCV titers (lg TCID50 for SPEV cell cultures) in medium samples (SPEV, Day 4, 500.0 μg/mL, treatment at the time of infection): 4.2 lg TCID50 | HCV titers (lg TCID50 for SPEV cell cultures) in medium samples (SPEV, Day 5, 0.005 μg/mL, treatment 24 hours after infection): 0 lg TCID50 | HCV titers (lg TCID50 for SPEV cell cultures) in medium samples (SPEV, Day 5, 0.005 μg/mL, treatment 24 hours before infection): 4.5 lg TCID50 | HCV titers (lg TCID50 for SPEV cell cultures) in medium samples (SPEV, Day 5, 0.005 μg/mL, treatment at the time of infection): 5.5 lg TCID50 | HCV titers (lg TCID50 for SPEV cell cultures) in medium samples (SPEV, Day 5, 0.05 μg/mL, treatment 24 hours after infection): 1.8 lg TCID50 | HCV titers (lg TCID50 for SPEV cell cultures) in medium samples (SPEV, Day 5, 0.05 μg/mL, treatment 24 hours before infection): 4.5 lg TCID50 | HCV titers (lg TCID50 for SPEV cell cultures) in medium samples (SPEV, Day 5, 0.05 μg/mL, treatment at the time of infection): 5.0 lg TCID50 | HCV titers (lg TCID50 for SPEV cell cultures) in medium samples (SPEV, Day 5, 0.5 μg/mL, treatment 24 hours after infection): 0 lg TCID50 | HCV titers (lg TCID50 for SPEV cell cultures) in medium samples (SPEV, Day 5, 0.5 μg/mL, treatment 24 hours before infection): 4.5 lg TCID50 | HCV titers (lg TCID50 for SPEV cell cultures) in medium samples (SPEV, Day 5, 0.5 μg/mL, treatment at the time of infection): 5.5 lg TCID50 | HCV titers (lg TCID50 for SPEV cell cultures) in medium samples (SPEV, Day 5, 5.0 μg/mL, treatment 24 hours after infection): 0 lg TCID50 | HCV titers (lg TCID50 for SPEV cell cultures) in medium samples (SPEV, Day 5, 5.0 μg/mL, treatment 24 hours before infection): 4.5 lg TCID50 | HCV titers (lg TCID50 for SPEV cell cultures) in medium samples (SPEV, Day 5, 5.0 μg/mL, treatment at the time of infection): 5.5 lg TCID50 | HCV titers (lg TCID50 for SPEV cell cultures) in medium samples (SPEV, Day 5, 50.0 μg/mL, treatment 24 hours after infection): 2.8 lg TCID50 | HCV titers (lg TCID50 for SPEV cell cultures) in medium samples (SPEV, Day 5, 50.0 μg/mL, treatment 24 hours before infection): 4.5 lg TCID50 | HCV titers (lg TCID50 for SPEV cell cultures) in medium samples (SPEV, Day 5, 50.0 μg/mL, treatment at the time of infection): 7.0 lg TCID50 | HCV titers (lg TCID50 for SPEV cell cultures) in medium samples (SPEV, Day 5, 500.0 μg/mL, treatment 24 hours after infection): 0 lg TCID50 | HCV titers (lg TCID50 for SPEV cell cultures) in medium samples (SPEV, Day 5, 500.0 μg/mL, treatment 24 hours before infection): 6.0 lg TCID50 | HCV titers (lg TCID50 for SPEV cell cultures) in medium samples (SPEV, Day 5, 500.0 μg/mL, treatment at the time of infection): 5.5 lg TCID50 | suppression of HCV infectious activity (SPEV, Day 5 after infection and simultaneous treatment of the cells): 2.2-2.7 lg TCID50/20 μg | suppression of the production of HCV compared with the control (SPEV, medium collected on Day 5 after infection): 2.2 lg TCID50/20 μg | HCV replication in SPEV cell cultures (added to the cultures 24 hours after infection): significantly suppresses
